Experimental data from the supplement of paper PMC10307832.

Key:
Experiment in all cases: relative viability (nuclei count vs DMSO), 5 days (fraction); higher = more cells survive
R406 + Dasatinib = compound: COc1cc(Nc2ncc(F)c(Nc3ccc4c(n3)NC(=O)C(C)(C)O4)n2)cc(OC)c1OC [R406] + Cc1nc(Nc2ncc(C(=O)Nc3c(C)cccc3Cl)s2)cc(N2CCN(CCO)CC2)n1 [Dasatinib] (partner 0.075 µM)
Outline: (§1)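 Lung cancer cell lines were pin-tool dosed in 1536-well plates on the day after seeding, with either a lone drug or a fixed anchor-drug dose plus five library-drug doses (not always all listed) in √10 steps. Nuclei were counted on 4× images after 5 days. Relative viability is the ratio of treated-well to vehicle-well nuclei counts, with each value a median of duplicate plates.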

Daporinad + Olaparib = compound: O=C(/C=C/c1cccnc1)NCCCCC1CCN(C(=O)c2ccccc2)CC1 [Daporinad] + O=C(c1cc(Cc2n[nH]c(=O)c3ccccc23)ccc1F)N1CCN(C(=O)C2CC2)CC1 [Olaparib] (partner 8 µM)
Outline: as §1

R406 + Olaparib = compound: COc1cc(Nc2ncc(F)c(Nc3ccc4c(n3)NC(=O)C(C)(C)O4)n2)cc(OC)c1OC [R406] + O=C(c1cc(Cc2n[nH]c(=O)c3ccccc23)ccc1F)N1CCN(C(=O)C2CC2)CC1 [Olaparib] (partner 8 µM)
Outline: as §1

Daporinad + Pictilisib = compound: O=C(/C=C/c1cccnc1)NCCCCC1CCN(C(=O)c2ccccc2)CC1 [Daporinad] + CS(=O)(=O)N1CCN(Cc2cc3nc(-c4cccc5[nH]ncc45)nc(N4CCOCC4)c3s2)CC1 [Pictilisib] (partner 1 µM)
Outline: as §1

UMC-11
relative viability (R406 + Dasatinib; first compound 0.08 µM): 0.466
relative viability (R406 + Dasatinib; first compound 0.253 µM): 0.572
relative viability (R406 + Dasatinib; first compound 0.8 µM): 0.519
relative viability (R406 + Dasatinib; first compound 2.53 µM): 0.459
relative viability (R406 + Dasatinib; first compound 8 µM): 0.342
relative viability (Daporinad + Olaparib; first compound 0.0005 µM): 0.294
relative viability (Daporinad + Olaparib; first compound 0.001581 µM): 0.339
relative viability (Daporinad + Olaparib; first compound 0.005 µM): 0.343
relative viability (Daporinad + Olaparib; first compound 0.01581 µM): 0.309
relative viability (R406 + Olaparib; first compound 0.08 µM): 0.392
relative viability (R406 + Olaparib; first compound 0.253 µM): 0.348
relative viability (R406 + Olaparib; first compound 0.8 µM): 0.342
relative viability (R406 + Olaparib; first compound 2.53 µM): 0.363
relative viability (R406 + Olaparib; first compound 8 µM): 0.199
relative viability (Daporinad + Pictilisib; first compound 0.0005 µM): 0.908
relative viability (Daporinad + Pictilisib; first compound 0.001581 µM): 0.668
relative viability (Daporinad + Pictilisib; first compound 0.005 µM): 0.928
relative viability (Daporinad + Pictilisib; first compound 0.01581 µM): 0.993
